Patent US20050239784A1 (priority 2002, published 2005)
Converted amounts (≈) assume the structure as drawn. Like-named read-outs stand apart in the source and are kept apart here.

Tests used:
AKT3 [1] = molecular target: T1, AKT3 (Homo sapiens, UniProt Q9Y243); assay: biochemical
Target sequence in this assay (Q9Y243 whole entry, species assumed): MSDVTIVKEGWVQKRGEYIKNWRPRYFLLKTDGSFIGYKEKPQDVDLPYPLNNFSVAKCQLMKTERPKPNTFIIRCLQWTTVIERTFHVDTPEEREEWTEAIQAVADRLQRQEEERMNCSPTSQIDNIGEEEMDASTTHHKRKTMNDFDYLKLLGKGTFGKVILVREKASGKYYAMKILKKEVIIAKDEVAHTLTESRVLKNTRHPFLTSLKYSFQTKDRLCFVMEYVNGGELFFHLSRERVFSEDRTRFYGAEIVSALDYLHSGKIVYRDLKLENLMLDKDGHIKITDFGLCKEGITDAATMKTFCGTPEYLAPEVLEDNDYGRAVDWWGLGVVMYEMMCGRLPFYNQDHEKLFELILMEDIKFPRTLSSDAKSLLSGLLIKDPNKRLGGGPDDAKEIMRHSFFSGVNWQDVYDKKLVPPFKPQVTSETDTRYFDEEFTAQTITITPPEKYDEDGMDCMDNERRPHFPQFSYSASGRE

physchem = details: pH 7.4, aqueous buffer, kinetic from dmso stock
A2780 cells = assay: Cytotox survival of A2780 cells after 3 days; format: cell-based; details: for IC50: Homo sapiens, A2780, 72 h
Method: In an alternative assay, the growth inhibitory effect of the compounds was tested on the ovarian carcinoma cell line A2780 using art known cytotoxicity assays such as LIVE/DEAD (Molecular Probes) MTT.

CDK4 = CDK4 (Homo sapiens, UniProt P11802); assay: biochemical
CDK4, sequence (P11802 whole entry, species assumed): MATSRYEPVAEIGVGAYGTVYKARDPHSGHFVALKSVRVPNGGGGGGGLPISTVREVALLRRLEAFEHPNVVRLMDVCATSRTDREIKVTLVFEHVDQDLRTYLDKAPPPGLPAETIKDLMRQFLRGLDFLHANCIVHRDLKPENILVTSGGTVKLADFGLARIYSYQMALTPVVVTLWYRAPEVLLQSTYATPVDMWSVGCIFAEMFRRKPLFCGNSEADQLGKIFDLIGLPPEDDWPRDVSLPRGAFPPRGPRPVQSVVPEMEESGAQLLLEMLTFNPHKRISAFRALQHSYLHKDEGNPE
CDK4, sequence (P24385 whole entry partner, species assumed): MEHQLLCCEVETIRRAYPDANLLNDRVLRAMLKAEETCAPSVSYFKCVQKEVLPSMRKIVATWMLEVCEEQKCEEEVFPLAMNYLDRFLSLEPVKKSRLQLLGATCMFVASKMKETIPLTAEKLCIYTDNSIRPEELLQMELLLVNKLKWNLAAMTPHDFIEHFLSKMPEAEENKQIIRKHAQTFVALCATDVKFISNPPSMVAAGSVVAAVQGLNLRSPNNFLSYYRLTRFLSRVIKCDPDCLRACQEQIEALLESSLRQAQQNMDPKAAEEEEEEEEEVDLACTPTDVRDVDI

CDC25B = molecular target: T2, CDC25B (Homo sapiens, UniProt P30305); assay: biochemical
T2 sequence (P30305 1-580): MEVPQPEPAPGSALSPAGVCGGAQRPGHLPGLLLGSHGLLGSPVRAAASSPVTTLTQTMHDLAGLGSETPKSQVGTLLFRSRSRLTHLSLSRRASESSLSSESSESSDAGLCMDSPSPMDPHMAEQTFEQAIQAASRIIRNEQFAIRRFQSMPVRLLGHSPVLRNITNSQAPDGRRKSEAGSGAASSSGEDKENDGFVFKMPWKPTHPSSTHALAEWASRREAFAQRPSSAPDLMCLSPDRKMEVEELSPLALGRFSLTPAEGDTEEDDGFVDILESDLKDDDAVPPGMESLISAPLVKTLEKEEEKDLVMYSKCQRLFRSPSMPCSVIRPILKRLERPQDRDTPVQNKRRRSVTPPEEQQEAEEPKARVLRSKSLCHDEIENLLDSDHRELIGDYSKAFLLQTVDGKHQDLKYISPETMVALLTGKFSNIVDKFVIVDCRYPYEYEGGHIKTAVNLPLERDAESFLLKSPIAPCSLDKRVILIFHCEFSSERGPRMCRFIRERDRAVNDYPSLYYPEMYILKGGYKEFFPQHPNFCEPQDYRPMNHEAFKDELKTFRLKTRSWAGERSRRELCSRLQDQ

AKT3 [2] = molecular target: T1, AKT3; assay: cell-based
Target sequence in this assay (Q9Y243 whole entry): as the sequence (Q9Y243 whole entry, species assumed) above

[3] = AKT3 pep. (Ex. C.3): pIC50 values
[4] = A2780 cells, 3 days, read-out: Cytotox survival of A2780 cells after 3 days - pIC50 values (converted)
[5] = CDK4 SPA (Ex. C.1): pIC50 values
[6] = read-out: AKT3 pep. (Ex. C.3): pIC50 values (converted)
[7] = read-out: CDC25B WT (Ex. C.5): pIC50 values (converted)
[8] = read-out: AKT cel (Ex. C.6): pIC50 values (converted)
[9] = read-out: CDK4 SPA (Ex. C.1): pIC50 values (converted)
[10] = read-out: Cytotox survival of A2780 cells after 3 days - pIC50 values, A2780 cells, 3 days (converted)
[11] = CDC25B WT (Ex. C.5): pIC50 values
[12] = AKT cel (Ex. C.6): pIC50 values, MDA-MB 231 cells, phosphorylated MAPK read-out

SMILES	IC50 (AKT3 [1]; [3]) [nM]	solubility (physchem) [µM]	IC50 (A2780 cells; [4]) [nM]	IC50 (CDK4; [5]) [nM]	IC50 (AKT3 [1]; [6]) [nM]	Cytotox survival of A2780 cells after 3 days - pIC50 values (A2780 cells; A2780 cells, 3 days)	IC50 (CDC25B; [7]) [nM]	IC50 (AKT3 [2]; [8]) [nM]	IC50 (CDK4; [9]) [nM]	IC50 (A2780 cells; [10]) [nM]	IC50 (CDC25B; [11]) [nM]	IC50 (AKT3 [2]; [12]) [nM]
CC(C)n1nc(-c2ccc(OCCN3CCOCC3)c(Cl)c2)nc2c(=O)n(C)c(=O)nc1-2 [Compound 74]	111	160 to 1800 (≈ 73.7 to 830 µg/mL)	190	161	–	–	–	–	–	–	–	–
COc1cc(-c2nc3c(=O)n(C)c(=O)nc-3n(C(C)C)n2)cc(OC)c1OCCN1CCCCC1 [Compound 77]	–	–	–	–	240	6.785	43.3	> 1000	293	–	–	–
COc1cc(-c2nc3c(=O)n(C)c(=O)nc-3n(C(C)C)n2)ccc1OCCN1CCCCC1 [Compound 78]	–	> 1800	–	–	262	–	44	301	513	269	–	–
CC(C)n1nc(-c2ccc(OCCN3CCN(S(=O)(=O)N(C)C)CC3)cc2)nc2c(=O)n(C)c(=O)nc1-2 [Compound 79]	–	160 to 1800 (≈ 85.2 to 959 µg/mL)	–	–	282	–	26.2	≥ 3000	404	513	–	–
CC(C)n1nc(-c2ccc(OCCN3CCN(C(=O)OC(C)(C)C)CC3)cc2)nc2c(=O)n(C)c(=O)nc1-2 [Compound 80]	–	160 to 1800 (≈ 84.1 to 946 µg/mL)	–	–	395	–	32.4	> 300	372	390	–	–
CC(C)n1nc(-c2ccc(OCCCN3CCCCC3)cc2)nc2c(=O)n(C)c(=O)nc1-2 [Compound 81]	–	> 1800	–	–	252	–	38.9	> 1000	194	132	–	–
CC(C)n1nc(-c2ccc(OCCN3CCNCC3)cc2)nc2c(=O)n(C)c(=O)nc1-2 [Compound 82]	–	> 1800	–	–	339	–	50.2	216	300	375	–	–
CC(C)n1nc(-c2ccc(OCCCN3CCOCC3)cc2)nc2c(=O)n(C)c(=O)nc1-2 [Compound 84]	280	> 1800	216	586	–	–	–	–	–	–	38.3	> 1000
COc1cc(-c2nc3c(=O)n(C)c(=O)nc-3n(C(C)C)n2)cc(OC)c1OCCN1CCN(C)CC1 [Compound 85]	–	> 1800	–	–	345	–	48.4	> 1000	322	228	–	–
COc1cc(-c2nc3c(=O)n(C)c(=O)nc-3n(C(C)C)n2)cc(OC)c1OS(=O)(=O)N(C)C [Compound 86]	–	160 to 1800 (≈ 76.9 to 865 µg/mL)	–	–	273	–	38.6	> 1000	272	264	–	–
CC(C)n1nc(-c2ccc(OS(=O)(=O)N(C)C)cc2)nc2c(=O)n(C)c(=O)nc1-2 [Compound 87]	410	160 to 1800 (≈ 67.3 to 757 µg/mL)	–	274	–	–	–	–	–	198	48.3	> 1000
CC(C)n1nc(-c2ccc(OCCCN3CCCCC3)cc2)nc2c(=O)n(C)c(=O)nc1-2 [Compound 90]	–	–	–	–	181	6.842	27.9	–	–	–	–	–
CC(C)n1nc(-c2ccc(OCCN3CCCCC3)cc2)nc2c(=O)n(C)c(=O)nc1-2 [Compound 94]	–	> 1800	–	–	165	–	36.4	–	173	163	–	–
CC(C)n1nc(-c2ccc(OCCNS(=O)(=O)N(C)C)cc2)nc2c(=O)n(C)c(=O)nc1-2 [Compound 109]	–	160 to 1800 (≈ 74.2 to 834 µg/mL)	–	–	155	–	–	> 3020	166	594	–	–
COc1cc(-c2nc3c(=O)n(C)c(=O)nc-3n(C3CCNCC3)n2)ccc1OCCN1CCCCC1 [Compound 152]	–	–	–	–	275	–	25.4	≥ 3000	187	630	–	–
Cn1c(=O)nc2n(C3CCNCC3)nc(-c3ccc(CCCN4CCCCC4)cc3)nc-2c1=O [Compound 155]	232	–	–	72.6	–	–	–	–	–	177	36.9	469
